The record followed here is ChEMBL document CHEMBL1201862, “PubChem BioAssay data set” (2004).

Assay [1] is described as follows: Trypanosoma cruzi growth suppression in host cells – NIH3T3 host cells, beta-gal luminescence, confirmation (AID 2044).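 Note: intracellular parasites grown in NIH/3T3 mouse fibroblasts as host cells; luminescent beta-galactosidase reporter signal from transgenic T. cruzi replicating inside host cells; inhibitors lower the luminescence signal.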 The format is functional, cell-based.
Assay [2] addresses T1, E3 ubiquitin-protein ligase XIAP (Homo sapiens, UniProt P98170). The assay can be described thus: Counter Screen using XIAP-Bir3 for Chemical Antagonists of Bir1/2 domains of IAP-family anti-apoptotic proteins. [Related pubchem assays (depositor defined):AID1018, AID1449, AID1514, AID1638, AID1749, AID1750, AID488957, AID488963].
For assay [3], the system named is INS1. The assay can be described thus: INS-1E survival protection against cytokine death – cell-based, luminescence, retest, dose response (AID 449756).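 Note: cell death triggered by IL-1 beta plus TNF-alpha plus IFN-gamma mixture; protective hits raise ATP signal compared with cytokine alone wells.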 In kind it is functional. Particulars: Rattus norvegicus.
For assay [4], the target named is T1, E3 ubiquitin-protein ligase XIAP. The assay can be described thus: small molecules displacing peptide from XIAP – biochemical, IAP family, fluorescence polarization (AID 1018). In kind it is functional. In general terms: Fluorescence polarisation rises when a labelled molecule tumbles more slowly, as on binding a larger partner.
Assay [5] is described as follows: NIH3T3 cell viability loss – ATP luminescence, mouse fibroblasts, counter-screen, dose response (AID 2010).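 Note: cells exposed to compound for about 90 hours before reading.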 The format is functional, cell-based. For orientation: Counterscreens check selectivity or assay interference.
Assay [6] has as its target Glyceraldehyde-3-phosphate dehydrogenase (Homo sapiens, UniProt P04406).
Assay [7] deals with Alkaline phosphatase, placental type (Homo sapiens, UniProt P05187). The assay can be described thus: human placental alkaline phosphatase inhibition – biochemical, luminescence, confirmation (AID 1512). In kind it is functional.
For assay [8], the target named is T2, Alkaline phosphatase, tissue-nonspecific isozyme (Homo sapiens, UniProt P05186).
T2 sequence (P05186 whole entry): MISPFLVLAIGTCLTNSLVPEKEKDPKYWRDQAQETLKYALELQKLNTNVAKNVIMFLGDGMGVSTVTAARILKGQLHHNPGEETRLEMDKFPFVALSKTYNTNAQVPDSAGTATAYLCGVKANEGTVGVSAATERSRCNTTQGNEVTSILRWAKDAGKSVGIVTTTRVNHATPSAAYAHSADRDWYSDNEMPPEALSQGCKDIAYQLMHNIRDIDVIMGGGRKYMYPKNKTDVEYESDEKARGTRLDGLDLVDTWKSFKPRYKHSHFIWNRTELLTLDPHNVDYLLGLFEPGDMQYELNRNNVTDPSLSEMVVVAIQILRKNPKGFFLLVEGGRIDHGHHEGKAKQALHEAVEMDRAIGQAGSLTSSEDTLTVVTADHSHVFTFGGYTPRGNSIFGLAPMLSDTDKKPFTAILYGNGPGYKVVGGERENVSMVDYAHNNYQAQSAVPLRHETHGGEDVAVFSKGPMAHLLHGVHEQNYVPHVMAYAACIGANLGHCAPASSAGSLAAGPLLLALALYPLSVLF
The assay can be described thus: potency against alkaline phosphatase TNAP – biochemical, luminescent, dose response, SAR follow-up (AID 1056).

Assay [9] has as its system Escherichia coli. Nature of the assay: microbe, parasite or virus in culture.
Assay [10] can be described thus: DRD fibroblast viability loss – cell-based, non-viral oncogenic, luminescence, dose response (AID 1934). The format is functional. The following applies: Homo sapiens.
Assay [11] has as its system BJ. Nature of the assay: BJ-TERT-LT-ST fibroblast viability loss – cell-based, RAS-independent, luminescence, dose response (AID 1935).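 Note: BJ fibroblasts immortalized with TERT plus LT and ST oncogenes.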 The format is functional. The following applies: Homo sapiens.
Assay [12] concerns HEK293. Nature of the assay: cells. Particulars: Homo sapiens.
In assay [13] the test system is HEK293. Nature of the assay: cells. Particulars: Homo sapiens. The source holds these as a separate data set.
In assay [14] the test system is BJ. The assay can be described thus: cells. The following applies: Homo sapiens. In kind it is functional, cell-based.
In assay [15] the test system is BJ. Nature of the assay: BJ-TERT fibroblast viability loss – cell-based, RAS-independent, luminescence, dose response (AID 1933). Particulars: Homo sapiens. The format is functional.
The target in assay [16] is Ion channel NompC (Danio rerio, UniProt Q7T1G6). Nature of the assay: Dose response cell-based high-throughput screening assay for agonists of the transient receptor potential channel N1 (TRPN1). [Related pubchem assays (depositor defined):AID1424, AID1448]. In kind it is functional.
Assay [17] addresses T3, Mucolipin-3 (Homo sapiens, UniProt Q8TDD5).
T3 sequence (Q8TDD5 whole entry): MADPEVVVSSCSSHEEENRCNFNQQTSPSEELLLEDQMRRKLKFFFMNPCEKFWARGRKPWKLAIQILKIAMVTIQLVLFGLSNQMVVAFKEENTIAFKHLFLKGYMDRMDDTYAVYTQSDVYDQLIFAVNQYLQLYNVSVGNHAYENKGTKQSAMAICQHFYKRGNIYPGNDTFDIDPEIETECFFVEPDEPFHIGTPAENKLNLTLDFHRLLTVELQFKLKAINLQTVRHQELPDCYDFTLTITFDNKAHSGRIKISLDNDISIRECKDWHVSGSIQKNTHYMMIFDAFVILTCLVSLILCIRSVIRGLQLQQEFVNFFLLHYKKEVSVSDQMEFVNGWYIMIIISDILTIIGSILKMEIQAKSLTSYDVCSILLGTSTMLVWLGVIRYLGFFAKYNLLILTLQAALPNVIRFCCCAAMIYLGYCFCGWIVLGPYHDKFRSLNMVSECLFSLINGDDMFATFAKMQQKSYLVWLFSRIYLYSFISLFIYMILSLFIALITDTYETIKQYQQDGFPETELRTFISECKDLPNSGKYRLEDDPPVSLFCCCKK
Nature of the assay: Fluorescence counterscreen assay for […] agonists: dose response cell-based high-throughput screening assay to identify agonists of the transient receptor potential channel ML3 (TRPML3). [Related pubchem assays: 1424, 1448 ]. In kind it is functional.

Assay [18] can be described thus: fluconazole-exposed Candida albicans growth modulators – fluorescence, retest, confirmation (AID 2467). In kind it is functional, cell-based.
Assay [19] in a line: NIH-3T3 fibroblast cytotoxicity, dose response, cytotoxicity control, cell-based, fluorescence, Alamar Blue, secondary assay (AID 2327).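 Note: NIH-3T3 mouse fibroblasts cultured with fluconazole at 8 µg/mL.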 The format is functional. For orientation: The colour change of resazurin is a common sign of viable cells or microbes.
Assay [20] deals with ATP-dependent molecular chaperone HSP82 (Candida albicans (strain WO-1) (Yeast), UniProt C4YTQ8). The assay can be described thus: steroid-induced GRE reporter decrease in yeast – S. cerevisiae, luminescence, Hsp90 inhibitor project, dose response (AID 2400).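 Note: beta-galactosidase luminescence from glucocorticoid response element reporter as proxy for Hsp90 function; inhibitor potency where signal loss means Hsp90 inhibition.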 In kind it is functional, cell-based.
Assay [21] addresses Serine/threonine-protein phosphatase (Candida dubliniensis (strain CD36 / CBS 7987 / NCPF 3949 / NRRLY-17841) (Yeast), UniProt B9W6M3). The assay can be described thus: blockers of CaCl2-induced CDRE-lacZ signaling – S. cerevisiae, luminescence, secondary, dose response (AID 2388).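 Note: yeast reporter cells carrying a calcineurin-responsive lacZ construct stimulated with calcium chloride; luminescent beta-galactosidase reporter signal in whole cells rather than isolated phosphatase activity; potency for inhibition where a drop in reporter signal means calcineurin blockade.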 In kind it is functional, cell-based.

Where “and” joins values, the source holds several entries; their conditions need not be identical. Equal values may be shown once. Calls of active or inactive are those of the source.

T1 sequence (P98170 whole entry): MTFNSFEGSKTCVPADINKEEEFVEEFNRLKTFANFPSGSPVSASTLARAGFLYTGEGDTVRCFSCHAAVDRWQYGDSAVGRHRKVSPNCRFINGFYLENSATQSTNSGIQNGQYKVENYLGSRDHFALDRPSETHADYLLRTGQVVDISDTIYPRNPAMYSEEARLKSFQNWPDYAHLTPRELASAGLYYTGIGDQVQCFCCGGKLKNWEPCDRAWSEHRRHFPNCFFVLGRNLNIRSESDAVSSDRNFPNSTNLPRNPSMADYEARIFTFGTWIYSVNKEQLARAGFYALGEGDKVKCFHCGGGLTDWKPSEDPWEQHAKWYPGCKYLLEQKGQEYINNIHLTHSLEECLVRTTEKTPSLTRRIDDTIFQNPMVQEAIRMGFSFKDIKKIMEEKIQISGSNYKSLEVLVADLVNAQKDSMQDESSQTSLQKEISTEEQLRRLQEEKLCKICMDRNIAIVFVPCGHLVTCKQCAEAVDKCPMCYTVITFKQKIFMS
Alkaline phosphatase, placental type, sequence (P05187 whole entry): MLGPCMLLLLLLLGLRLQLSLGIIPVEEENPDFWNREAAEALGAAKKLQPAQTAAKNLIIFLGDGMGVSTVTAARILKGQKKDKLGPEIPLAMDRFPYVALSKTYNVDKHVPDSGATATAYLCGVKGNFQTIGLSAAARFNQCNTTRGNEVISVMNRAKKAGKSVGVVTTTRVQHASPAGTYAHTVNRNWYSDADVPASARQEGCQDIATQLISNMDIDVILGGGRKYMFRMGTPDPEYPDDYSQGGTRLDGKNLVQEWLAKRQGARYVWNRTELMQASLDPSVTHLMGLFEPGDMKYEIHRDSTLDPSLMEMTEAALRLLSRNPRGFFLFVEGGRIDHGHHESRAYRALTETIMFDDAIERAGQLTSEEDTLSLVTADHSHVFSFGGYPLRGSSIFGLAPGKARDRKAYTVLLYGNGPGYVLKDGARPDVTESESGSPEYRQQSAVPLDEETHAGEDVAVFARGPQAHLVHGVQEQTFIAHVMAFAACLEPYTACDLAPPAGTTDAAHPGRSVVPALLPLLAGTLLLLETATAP
Ion channel NompC, sequence (Q7T1G6 whole entry): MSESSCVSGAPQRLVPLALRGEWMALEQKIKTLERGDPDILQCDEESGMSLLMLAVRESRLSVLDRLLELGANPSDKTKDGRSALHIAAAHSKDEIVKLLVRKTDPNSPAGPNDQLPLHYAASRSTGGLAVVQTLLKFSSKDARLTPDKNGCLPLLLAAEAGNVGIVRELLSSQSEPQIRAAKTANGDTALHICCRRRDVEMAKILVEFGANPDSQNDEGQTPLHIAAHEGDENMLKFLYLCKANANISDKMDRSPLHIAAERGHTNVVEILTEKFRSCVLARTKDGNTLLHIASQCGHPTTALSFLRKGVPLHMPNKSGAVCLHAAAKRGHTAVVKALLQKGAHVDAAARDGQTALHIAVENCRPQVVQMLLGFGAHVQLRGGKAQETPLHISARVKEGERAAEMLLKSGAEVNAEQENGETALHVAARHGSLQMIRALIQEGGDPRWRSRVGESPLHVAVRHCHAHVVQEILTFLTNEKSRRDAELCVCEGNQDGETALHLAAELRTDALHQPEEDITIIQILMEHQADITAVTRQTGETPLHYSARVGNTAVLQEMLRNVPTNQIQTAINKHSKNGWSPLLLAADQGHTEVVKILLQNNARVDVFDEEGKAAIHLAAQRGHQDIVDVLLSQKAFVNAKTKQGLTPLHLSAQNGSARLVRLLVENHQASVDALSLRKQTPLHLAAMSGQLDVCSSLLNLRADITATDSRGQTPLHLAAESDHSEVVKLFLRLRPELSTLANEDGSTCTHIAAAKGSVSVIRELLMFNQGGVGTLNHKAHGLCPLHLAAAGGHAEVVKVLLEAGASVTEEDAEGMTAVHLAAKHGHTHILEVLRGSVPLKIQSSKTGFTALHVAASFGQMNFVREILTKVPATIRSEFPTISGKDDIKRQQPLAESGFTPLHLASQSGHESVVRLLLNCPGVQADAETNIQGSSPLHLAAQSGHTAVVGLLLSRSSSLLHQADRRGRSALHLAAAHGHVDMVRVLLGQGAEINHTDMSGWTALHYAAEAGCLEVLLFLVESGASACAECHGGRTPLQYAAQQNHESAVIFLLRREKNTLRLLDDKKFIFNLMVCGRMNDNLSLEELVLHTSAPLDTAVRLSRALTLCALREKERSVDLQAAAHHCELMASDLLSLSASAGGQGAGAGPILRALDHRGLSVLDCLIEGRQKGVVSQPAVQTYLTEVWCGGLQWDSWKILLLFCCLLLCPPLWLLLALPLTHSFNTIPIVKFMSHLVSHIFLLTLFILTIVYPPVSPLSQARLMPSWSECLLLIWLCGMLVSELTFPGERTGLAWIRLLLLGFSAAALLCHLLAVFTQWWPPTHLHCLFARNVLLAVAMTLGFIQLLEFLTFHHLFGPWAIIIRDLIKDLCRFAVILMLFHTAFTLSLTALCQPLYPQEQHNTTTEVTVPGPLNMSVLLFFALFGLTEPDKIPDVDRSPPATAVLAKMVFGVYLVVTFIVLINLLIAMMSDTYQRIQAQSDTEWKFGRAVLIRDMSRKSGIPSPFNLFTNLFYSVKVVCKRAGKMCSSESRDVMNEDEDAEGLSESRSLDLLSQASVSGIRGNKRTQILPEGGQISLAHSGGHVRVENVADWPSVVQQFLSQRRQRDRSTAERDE
ATP-dependent molecular chaperone HSP82, sequence (C4YTQ8 whole entry): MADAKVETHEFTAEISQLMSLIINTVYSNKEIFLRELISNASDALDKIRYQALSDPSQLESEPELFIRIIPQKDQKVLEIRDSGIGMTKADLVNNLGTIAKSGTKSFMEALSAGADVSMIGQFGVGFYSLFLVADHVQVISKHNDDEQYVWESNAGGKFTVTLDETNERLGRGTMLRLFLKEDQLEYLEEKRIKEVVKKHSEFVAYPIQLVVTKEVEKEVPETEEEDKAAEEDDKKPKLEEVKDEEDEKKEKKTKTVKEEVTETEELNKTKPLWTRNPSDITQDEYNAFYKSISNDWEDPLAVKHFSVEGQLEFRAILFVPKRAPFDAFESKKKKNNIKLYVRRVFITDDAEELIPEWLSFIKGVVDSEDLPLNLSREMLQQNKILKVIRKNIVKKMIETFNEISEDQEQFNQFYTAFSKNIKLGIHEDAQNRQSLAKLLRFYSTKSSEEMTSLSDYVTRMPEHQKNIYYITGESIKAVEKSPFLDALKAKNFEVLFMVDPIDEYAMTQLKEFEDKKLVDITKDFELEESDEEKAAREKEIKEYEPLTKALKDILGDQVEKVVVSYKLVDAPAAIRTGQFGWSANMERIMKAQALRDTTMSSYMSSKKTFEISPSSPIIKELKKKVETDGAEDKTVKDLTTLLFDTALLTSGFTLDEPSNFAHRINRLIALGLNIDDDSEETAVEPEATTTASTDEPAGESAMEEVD
Serine/threonine-protein phosphatase, sequence (B9W6M3 whole entry): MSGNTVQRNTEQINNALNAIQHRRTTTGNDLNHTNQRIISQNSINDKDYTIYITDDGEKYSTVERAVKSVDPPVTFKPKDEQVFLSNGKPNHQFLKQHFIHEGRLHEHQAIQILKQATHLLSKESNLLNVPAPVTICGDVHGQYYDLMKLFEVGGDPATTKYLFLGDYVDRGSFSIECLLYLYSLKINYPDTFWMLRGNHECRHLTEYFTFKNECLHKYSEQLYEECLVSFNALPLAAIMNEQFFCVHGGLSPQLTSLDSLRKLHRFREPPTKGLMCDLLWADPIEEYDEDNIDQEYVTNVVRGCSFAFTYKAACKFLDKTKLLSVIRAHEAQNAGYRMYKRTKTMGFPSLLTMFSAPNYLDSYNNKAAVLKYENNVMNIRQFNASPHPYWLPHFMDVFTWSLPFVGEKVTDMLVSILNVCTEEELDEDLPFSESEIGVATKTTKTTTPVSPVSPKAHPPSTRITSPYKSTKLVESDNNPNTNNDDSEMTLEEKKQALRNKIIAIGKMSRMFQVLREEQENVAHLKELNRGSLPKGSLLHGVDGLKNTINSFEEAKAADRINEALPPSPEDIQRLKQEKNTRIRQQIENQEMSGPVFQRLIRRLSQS
Glyceraldehyde-3-phosphate dehydrogenase, sequence (P04406 whole entry): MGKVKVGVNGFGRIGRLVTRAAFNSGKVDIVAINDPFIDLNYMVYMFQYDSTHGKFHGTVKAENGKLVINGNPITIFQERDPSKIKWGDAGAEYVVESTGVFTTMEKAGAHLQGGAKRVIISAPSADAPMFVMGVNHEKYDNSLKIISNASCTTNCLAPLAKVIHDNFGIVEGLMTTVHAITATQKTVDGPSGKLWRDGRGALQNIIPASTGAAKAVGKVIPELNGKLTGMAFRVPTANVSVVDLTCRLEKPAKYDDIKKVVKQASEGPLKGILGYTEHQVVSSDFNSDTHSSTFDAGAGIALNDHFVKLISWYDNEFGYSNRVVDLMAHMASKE

In general, EC50 refers to the concentration at which the effect is half-maximal. Usually IC50 stands for the point on the concentration scale where inhibition reaches its midpoint. One may read the AC50 as the midpoint of the concentration-response curve, whichever way the signal moves. Consider `Cc1nn(S(=O)(=O)c2ccc(Cl)cc2)c(C)c1Sc1ccc([N+](=O)[O-])cc1`, for which the EC50 in [1] is 1.73 µM (active); in assay [5], > 60 µM (not active). For the same molecule, the IC50 is > 100 µM (inactive) in [2] and > 100 µM (not active) in [4]. Besides, in assay [3], the half-maximal activity concentration (AC50) was 6.21 µM (active).

Regarding `CCS(=O)(=O)c1nc(NC(C)=O)n[nH]1`, the IC50 in assay [6] was > 100 µM (not active); in [7], > 100 µM (inactive); in [8], 94.8 µM (active) and > 100 µM (inactive).

As to `CCCCNC(=O)CCCn1c(=O)[nH]c2ccc(Br)cc2c1=O`, in assay [9], the half-maximal activity concentration (AC50) is 53.7 µM (active).

As for `C=CCOc1ccc2[nH]c(NC(=O)OC)nc2c1`, the concentration for a half-maximal effect (EC50) in assay [10] was 1.01 µM (active); in [11] it was 1.46 µM (inconclusive); in [12] it was > 59.6 µM (inactive); in assay [13] it was > 59.6 µM (inactive); in assay [14] it was 18.4 µM (inconclusive); in [15], 1.69 µM (active).

In the case of `Cc1ccc(N2C(=O)CC(N3CCSCC3)C2=O)c(C)c1` (stereo unspecified), the EC50 was > 29.9 µM (inactive) in assay [16] and > 29.9 µM (not active) in [17].

In the case of `O=[N+]([O-])c1c(C(Cl)Cl)nn(-c2ccc(Cl)cc2)c1N1CCCCC1`, the concentration giving a half-maximal response (EC50) was 0.436 µM (active) in assay [18], > 150 µM (inactive) in assay [19], 18.7 µM (active) in [20] and > 180 µM (inactive) in assay [21].
